Assays:
[1] = target: Melatonin receptor type 1A (Rattus norvegicus, UniProt P49218)
[2] = target: 5-hydroxytryptamine receptor 7 (Rattus norvegicus, UniProt P32305)
[3] = target: Neuropeptide Y receptor type 2 (Rattus norvegicus, UniProt Q9ERC0)
[4] = target: Galanin peptides (Rattus norvegicus, UniProt P10683)
[5] = target: Prostaglandin G/H synthase 2 (Rattus norvegicus, UniProt P35355)
[6] = target: Alpha-1A adrenergic receptor (Rattus norvegicus, UniProt P43140)
[7] = target: Histamine H2 receptor (Rattus norvegicus, UniProt P25102)
[8] = target: Calcium release-activated calcium channel protein 1 (Homo sapiens, UniProt Q96D31)
Calcium release-activated calcium channel protein 1, sequence (Q96D31 whole entry): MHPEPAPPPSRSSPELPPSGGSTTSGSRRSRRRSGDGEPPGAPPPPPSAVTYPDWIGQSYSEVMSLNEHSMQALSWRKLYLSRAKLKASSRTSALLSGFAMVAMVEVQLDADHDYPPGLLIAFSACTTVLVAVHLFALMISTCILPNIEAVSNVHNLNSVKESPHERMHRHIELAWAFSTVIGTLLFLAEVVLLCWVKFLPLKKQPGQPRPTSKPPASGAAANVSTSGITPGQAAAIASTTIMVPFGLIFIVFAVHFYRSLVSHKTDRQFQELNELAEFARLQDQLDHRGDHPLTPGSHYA

[9] = target: Vasopressin V2 receptor (Rattus norvegicus, UniProt Q00788)
Vasopressin V2 receptor, sequence (Q00788 whole entry): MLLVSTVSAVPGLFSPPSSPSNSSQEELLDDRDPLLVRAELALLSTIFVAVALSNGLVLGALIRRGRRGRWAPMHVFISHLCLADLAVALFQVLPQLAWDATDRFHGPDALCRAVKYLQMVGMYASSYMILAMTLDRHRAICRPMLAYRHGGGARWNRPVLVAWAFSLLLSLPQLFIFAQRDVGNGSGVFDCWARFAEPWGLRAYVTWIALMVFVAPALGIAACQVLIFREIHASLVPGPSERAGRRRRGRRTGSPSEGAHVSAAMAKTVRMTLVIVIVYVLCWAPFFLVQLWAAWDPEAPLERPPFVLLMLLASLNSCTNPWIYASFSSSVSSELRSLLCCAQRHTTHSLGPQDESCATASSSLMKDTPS

[10] = target: Substance-P receptor (Rattus norvegicus, UniProt P14600)
[11] = target: Endothelin-1 receptor (Rattus norvegicus, UniProt P26684)
[12] = target: Thromboxane A2 receptor (Rattus norvegicus, UniProt P34978)
[13] = target: Bombesin receptor subtype-3 (Rattus norvegicus, UniProt Q8K418)
[14] = target: 5-hydroxytryptamine receptor 5A (Rattus norvegicus, UniProt P35364)
5-hydroxytryptamine receptor 5A, sequence (P35364 whole entry): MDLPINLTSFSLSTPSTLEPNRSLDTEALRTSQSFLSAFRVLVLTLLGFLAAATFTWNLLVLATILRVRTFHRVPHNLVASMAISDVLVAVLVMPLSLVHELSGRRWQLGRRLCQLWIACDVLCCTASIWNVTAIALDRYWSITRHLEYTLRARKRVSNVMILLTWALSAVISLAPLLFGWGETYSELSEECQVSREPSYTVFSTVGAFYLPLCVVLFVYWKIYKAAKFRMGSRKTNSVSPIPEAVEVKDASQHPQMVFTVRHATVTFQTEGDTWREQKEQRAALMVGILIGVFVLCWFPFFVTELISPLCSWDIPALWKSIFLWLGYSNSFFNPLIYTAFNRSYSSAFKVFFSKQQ

[15] = target: Vasopressin V1a receptor (Rattus norvegicus, UniProt P30560)
[16] = target: 5-hydroxytryptamine receptor 6 (Rattus norvegicus, UniProt P31388)
5-hydroxytryptamine receptor 6, sequence (P31388 whole entry): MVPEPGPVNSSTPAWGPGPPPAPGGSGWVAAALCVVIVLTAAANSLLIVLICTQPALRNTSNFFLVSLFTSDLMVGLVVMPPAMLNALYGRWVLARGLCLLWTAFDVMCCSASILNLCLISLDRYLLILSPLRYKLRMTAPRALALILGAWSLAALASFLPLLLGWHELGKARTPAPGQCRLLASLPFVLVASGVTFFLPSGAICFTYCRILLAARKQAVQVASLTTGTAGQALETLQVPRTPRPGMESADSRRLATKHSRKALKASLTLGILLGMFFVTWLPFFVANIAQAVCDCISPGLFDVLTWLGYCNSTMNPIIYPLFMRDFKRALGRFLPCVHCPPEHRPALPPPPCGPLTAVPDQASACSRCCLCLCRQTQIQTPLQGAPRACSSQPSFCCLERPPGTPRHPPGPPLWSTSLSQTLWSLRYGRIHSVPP

[17] = target: Substance-K receptor (Rattus norvegicus, UniProt P16610)
Substance-K receptor, sequence (P16610 whole entry): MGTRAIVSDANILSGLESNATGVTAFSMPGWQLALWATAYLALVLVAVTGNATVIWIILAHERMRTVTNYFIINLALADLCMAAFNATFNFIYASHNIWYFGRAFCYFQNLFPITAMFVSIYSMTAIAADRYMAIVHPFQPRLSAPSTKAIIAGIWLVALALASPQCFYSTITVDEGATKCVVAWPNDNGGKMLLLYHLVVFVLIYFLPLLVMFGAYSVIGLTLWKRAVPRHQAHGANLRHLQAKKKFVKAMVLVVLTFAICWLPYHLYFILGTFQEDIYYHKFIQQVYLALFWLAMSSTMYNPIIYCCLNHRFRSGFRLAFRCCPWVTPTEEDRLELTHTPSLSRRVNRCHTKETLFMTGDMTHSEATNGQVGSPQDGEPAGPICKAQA

[18] = target: 5-hydroxytryptamine receptor 3A (Rattus norvegicus, UniProt P35563)
[19] = target: Chloride channel protein 1 (Rattus norvegicus, UniProt P35524)
[20] = target: Cannabinoid receptor 1 (Rattus norvegicus, UniProt P20272)
[21] = target: 5'-nucleotidase (Rattus norvegicus, UniProt P21588)
[22] = target: Norepinephrine transporter (Rattus norvegicus, UniProt Q9JIA2)
[23] = target: Cannabinoid receptor 2 (Rattus norvegicus, UniProt Q9QZN9)
Cannabinoid receptor 2, sequence (Q9QZN9 whole entry): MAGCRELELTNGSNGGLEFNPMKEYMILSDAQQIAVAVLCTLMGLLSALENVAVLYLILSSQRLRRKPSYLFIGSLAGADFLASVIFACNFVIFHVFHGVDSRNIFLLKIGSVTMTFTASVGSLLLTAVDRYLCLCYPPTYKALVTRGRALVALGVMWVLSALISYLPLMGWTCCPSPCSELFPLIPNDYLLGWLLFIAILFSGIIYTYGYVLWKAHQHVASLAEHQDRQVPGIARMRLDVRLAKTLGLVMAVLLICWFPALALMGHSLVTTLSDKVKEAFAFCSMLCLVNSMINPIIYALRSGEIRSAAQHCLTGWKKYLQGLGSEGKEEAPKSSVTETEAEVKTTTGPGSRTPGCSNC

[24] = target: Gastrin/cholecystokinin type B receptor (Rattus norvegicus, UniProt P30553)
[25] = target: D(4) dopamine receptor (Rattus norvegicus, UniProt P30729)
[26] = target: D(2) dopamine receptor (Rattus norvegicus, UniProt P61169)
D(2) dopamine receptor, sequence (P61169 whole entry): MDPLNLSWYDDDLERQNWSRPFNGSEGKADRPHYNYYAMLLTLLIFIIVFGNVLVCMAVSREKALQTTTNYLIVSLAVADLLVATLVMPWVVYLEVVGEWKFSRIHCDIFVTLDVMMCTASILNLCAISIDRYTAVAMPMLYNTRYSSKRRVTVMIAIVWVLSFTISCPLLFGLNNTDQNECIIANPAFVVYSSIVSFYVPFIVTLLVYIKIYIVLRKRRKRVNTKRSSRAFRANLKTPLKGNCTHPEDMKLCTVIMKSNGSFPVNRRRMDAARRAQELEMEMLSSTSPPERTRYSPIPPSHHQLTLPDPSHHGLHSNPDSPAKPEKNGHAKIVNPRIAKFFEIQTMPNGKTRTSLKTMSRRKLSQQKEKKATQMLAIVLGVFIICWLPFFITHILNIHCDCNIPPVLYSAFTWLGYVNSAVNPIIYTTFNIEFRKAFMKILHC

[27] = target: Muscarinic acetylcholine receptor M5 (Rattus norvegicus, UniProt P08911)
[28] = target: D(3) dopamine receptor (Rattus norvegicus, UniProt P19020)
[29] = target: Prostaglandin G/H synthase 1 (Rattus norvegicus, UniProt Q63921)
[30] = target: Pro-neuropeptide Y (Rattus norvegicus, UniProt P07808)
[31] = target: Amine oxidase [flavin-containing] B (Rattus norvegicus, UniProt P19643)
[32] = target: Kappa-type opioid receptor (Rattus norvegicus, UniProt P34975)
[33] = target: Alpha-2C adrenergic receptor (Rattus norvegicus, UniProt P22086)
Alpha-2C adrenergic receptor, sequence (P22086 whole entry): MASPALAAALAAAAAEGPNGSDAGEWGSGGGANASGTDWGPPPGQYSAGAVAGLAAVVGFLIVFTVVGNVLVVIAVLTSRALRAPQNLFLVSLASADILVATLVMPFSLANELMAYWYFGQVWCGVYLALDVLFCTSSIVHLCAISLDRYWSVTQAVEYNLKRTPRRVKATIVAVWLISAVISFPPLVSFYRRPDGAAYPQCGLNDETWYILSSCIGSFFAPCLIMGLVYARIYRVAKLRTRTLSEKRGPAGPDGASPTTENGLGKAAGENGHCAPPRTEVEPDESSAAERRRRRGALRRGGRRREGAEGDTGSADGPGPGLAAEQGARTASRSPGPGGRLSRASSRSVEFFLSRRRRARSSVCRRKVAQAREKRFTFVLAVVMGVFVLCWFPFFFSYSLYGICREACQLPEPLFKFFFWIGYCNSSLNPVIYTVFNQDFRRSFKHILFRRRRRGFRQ

[34] = target: Muscarinic acetylcholine receptor M4 (Rattus norvegicus, UniProt P08485)
Muscarinic acetylcholine receptor M4, sequence (P08485 as listed by the source): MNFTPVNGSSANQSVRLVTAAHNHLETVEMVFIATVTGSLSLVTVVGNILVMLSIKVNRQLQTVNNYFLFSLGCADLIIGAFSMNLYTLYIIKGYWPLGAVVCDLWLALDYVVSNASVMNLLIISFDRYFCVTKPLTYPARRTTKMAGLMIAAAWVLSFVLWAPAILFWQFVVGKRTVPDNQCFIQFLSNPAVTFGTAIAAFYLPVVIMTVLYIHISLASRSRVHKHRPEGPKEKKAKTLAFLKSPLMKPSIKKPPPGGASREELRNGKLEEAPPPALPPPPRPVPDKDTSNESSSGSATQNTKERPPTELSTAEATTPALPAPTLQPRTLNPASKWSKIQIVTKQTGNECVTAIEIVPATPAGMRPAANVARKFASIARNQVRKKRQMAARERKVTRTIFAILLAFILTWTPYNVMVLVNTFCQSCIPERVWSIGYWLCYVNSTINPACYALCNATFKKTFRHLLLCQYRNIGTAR

[35] = target: Prostacyclin receptor (Rattus norvegicus, UniProt P43253)
[36] = target: Voltage-dependent L-type calcium channel subunit alpha-1C (Rattus norvegicus, UniProt P22002)
[37] = target: Beta-1 adrenergic receptor (Rattus norvegicus, UniProt P18090)
Beta-1 adrenergic receptor, sequence (P18090 whole entry): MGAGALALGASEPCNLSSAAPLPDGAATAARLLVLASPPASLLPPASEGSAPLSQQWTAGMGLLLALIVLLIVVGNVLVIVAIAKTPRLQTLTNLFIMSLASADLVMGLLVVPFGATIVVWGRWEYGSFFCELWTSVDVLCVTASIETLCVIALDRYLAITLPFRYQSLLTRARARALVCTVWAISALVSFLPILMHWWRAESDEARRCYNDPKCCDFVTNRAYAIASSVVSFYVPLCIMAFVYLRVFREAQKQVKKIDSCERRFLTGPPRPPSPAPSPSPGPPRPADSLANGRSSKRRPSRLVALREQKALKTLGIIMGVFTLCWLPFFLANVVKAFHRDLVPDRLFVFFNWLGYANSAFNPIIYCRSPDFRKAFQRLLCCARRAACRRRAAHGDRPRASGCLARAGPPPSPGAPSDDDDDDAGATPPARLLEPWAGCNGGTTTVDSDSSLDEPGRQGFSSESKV

[38] = target: Gamma-aminobutyric acid (GABA) B receptor 1 (Rattus norvegicus, UniProt Q6MFX8)
[39] = target: Glutamate receptor ionotropic, kainate 1 (Rattus norvegicus, UniProt P22756)
[40] = target: Interleukin-1 alpha (Rattus norvegicus, UniProt P16598)

Melatonin receptor type 1A, sequence (P49218 whole entry): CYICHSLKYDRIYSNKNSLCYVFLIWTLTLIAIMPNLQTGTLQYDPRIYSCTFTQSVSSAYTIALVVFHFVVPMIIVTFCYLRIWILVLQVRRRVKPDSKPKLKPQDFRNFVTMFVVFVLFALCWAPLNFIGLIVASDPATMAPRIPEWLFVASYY
5-hydroxytryptamine receptor 7, sequence (P32305 whole entry): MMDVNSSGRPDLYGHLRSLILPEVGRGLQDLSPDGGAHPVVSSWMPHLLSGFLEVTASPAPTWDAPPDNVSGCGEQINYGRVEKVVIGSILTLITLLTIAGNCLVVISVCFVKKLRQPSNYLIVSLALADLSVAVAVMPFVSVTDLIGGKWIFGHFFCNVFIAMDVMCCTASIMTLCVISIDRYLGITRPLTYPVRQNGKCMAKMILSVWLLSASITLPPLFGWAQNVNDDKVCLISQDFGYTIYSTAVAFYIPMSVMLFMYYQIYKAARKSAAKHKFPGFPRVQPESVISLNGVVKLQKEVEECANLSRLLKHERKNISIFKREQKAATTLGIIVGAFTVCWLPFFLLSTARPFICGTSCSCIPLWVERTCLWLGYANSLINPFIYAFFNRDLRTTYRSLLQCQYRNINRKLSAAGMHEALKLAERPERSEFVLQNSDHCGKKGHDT
Galanin peptides, sequence (P10683 33-61 limits assumed): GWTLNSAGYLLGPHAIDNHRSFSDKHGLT

Nc1ncnc2nc(-c3ccc(N4CCOCC4)nc3)cc(-c3cccc(Br)c3)c12
Ki [1]: > 10 µM
Ki [2]: > 10 µM
Ki [3]: > 10 µM
Ki [4]: > 10 µM
Ki [5]: > 10 µM
Ki [6]: > 10 µM
Ki [7]: > 10 µM
Ki [8]: > 10 µM
Ki [9]: > 10 µM
Ki [10]: > 10 µM
Ki [11]: > 10 µM
Ki [12]: > 10 µM
Ki [13]: > 10 µM
Ki [14]: > 10 µM
Ki [15]: > 10 µM
Ki [16]: > 10 µM
Ki [17]: 8.56 µM
Ki [18]: > 10 µM
Ki [19]: > 10 µM
Ki [20]: > 10 µM
Ki [21]: > 10 µM
Ki [22]: > 10 µM
Ki [23]: > 10 µM
Ki [24]: > 10 µM
Ki [25]: > 10 µM
Ki [26]: > 10 µM
Ki [27]: > 10 µM
Ki [28]: > 10 µM
Ki [29]: > 10 µM
Ki [30]: > 10 µM
Ki [31]: > 10 µM
Ki [32]: 4.6 µM
Ki [33]: > 10 µM
Ki [34]: > 10 µM
Ki [35]: > 10 µM
Ki [36]: > 10 µM
Ki [37]: > 10 µM
Ki [38]: > 10 µM
Ki [39]: > 10 µM
Ki [40]: > 10 µM

Source: BindingDB's records for PubMed 11082453 (Abbott Laboratories, 2000)
